{"source": "patent US6955806B2", "about": "“Ionene polymers and their use as antimicrobial agents” (Genzyme Corporation, priority 2001, dated 2005)", "conditions": "mouse, in vivo", "experimental": "In vivo toxicity of the polymer of Formula II was assayed in mice. Groups of 5 animals were dosed twice daily for 5 days by oral gavage at a dose of 10, 100, or 500 mg/kg body weight. Animals were assessed daily, and deaths were recorded. The dose at which ½ the animals died was considered the LD50.", "note": "Read-outs that look alike come from different tables or passages of the source."}
{"substance": "Poly(4,4′-trimethylenebis(1-methylpiperidinium)-alt-1,8-octane) [Formula II]", "values": [{"measurement": "tolerability in 5-day oral toxicity study", "setting": "10 mg/kg/day", "value": "well tolerated"}, {"measurement": "tolerability in 5-day oral toxicity study", "setting": "100 mg/kg/day", "value": "moderate toxicity was evident"}]}
